Assay results published in patent publication US20220220480A1, “METHODS AND COMPOSITIONS FOR TREATMENT OF NLRP3 IN[…] IL-1BETA DEPENDENT DISORDERS” (priority 2019, published 2022).

Columns and labels:
[1] = Imiquimod induced psoriasis-like phenotype, adapted PASI score; format: in vivo, C57BL/6J mice; conditions: day 4 of imiquimod administration, AZ13711265 10 mg/kg intraperitoneally daily; for Erythema score (PASI) / Scaling score (PASI): scale 0-4
Description: FIG. 5: 8 weeks old C57BL/6J mice were shaved two days before the experiment. One day before administration of imiquimod and daily for 5 days, mice were intraperitoneally injected with vehicle (60% PEG, 40% PBS) or with the Pak1 inhibitor AZ13711265 (10 mg/kg). Mice were treated in the back daily for 4 days either with Vaseline or with Aldara cream corresponding to 3,125 mg of imiquimod (IMQ) to induce psoriasis-like phenotype. The erythema and scaling was analyzed by an adapted version of the clinical PASI score, 0: none; 1: slight; 2: moderated; 3: strong; 4: very strong phenotype. The total score is the cumulative score of scaling and erythema. Results are expressed as mean±SEM. p-value: *<0.01, ***<0.001, compared to control
Futhermore, we investigated the effect of Pak1 kinase inhibitor on a psoriasis model. Dermal application of imiquimod induced a psoriasis-like phenotype including scaling and erythema that are scored using the PASI score.

[2] = test system: Caspase-1 activation; assay: FAM-FLICA Caspase-1 activation assay by microscopy in BMDMs; format: cell-based, mouse; conditions: for Block of CNF1-triggered Caspase-1 activity/activation measured using FAM-FLICA: BMDMs, inhibitor 45 min before CNF1 500 ng/mL, 1 μM MCC950, 5 μM IPA-3, 1 μM FRAX597 (FIG. 1b, 2d)
Description: Bone-marrow derived macrophages (BMDMs) were extracted from femurs of 6-10 weeks-old BALB/c, C57BL/6J or C57BL/6J KO mice as indicated in the figure legends and were cultured in RPMI GlutaMax medium (Life Technologies) supplemented with 100 ng/mL M-CSF (Premium grade, Miltenyi Biotec), 10% heat-inactivated FBS (Biowest) and 50 μg/mL gentamycin (Life Technologies) at 37° C. in an atmosphere containing 5% CO2. The cells were seeded at a concentration of 10^6 cells per well in a 6-well plate. After 6 days of differentiation, BMDMs were used for experiments. NLRP3, NLRC4, PYRIN, and GSDMD knock-out BMDMs were a kind gift from M. Lamkanfi. […] SiRNAs were transfected in HEK 293T cells or BMDMs during 72 h using Lipofectamine RNAiMAX Reagent (ThermoFisher Scientific) according to the manufacturer instructions. Cells were transfected as indicated in figure legends with siRNAs targeting NLRP3 (L-053455-00, Dharmacon), Rac1 (L-041170-00, Dharmacon), Rac2 (L-041171-01, Dharmacon), Nek7 (J-063266-09, Dharmacon), PAK1 (L-048101-00, Dharmacon), PAK2 (L-040615-00, Dharmacon) or non-targeting control siRNA (D-001810-10, Dharmacon). […] Cells pre-treated with ultrapure LPS for 6 h followed by the addition of Nigericin 504 (Invivogen) or ATP 5 mM (Invivogen) for 30 minutes were used as positive control of NLRP3 inflammasome activation.
Caspase 1 activation was detected using the fluorescent probe FAM-FLICA (ImmunoChemistry Technologies) after 6 h of treatment, according to the manufacturer instructions. After labelling, cells were fixed in 4% paraformaldehyde for 15 min and blocked with 2% TBS-BSA. Cells were incubated with mouse anti-NLRP3 antibody (clone Cryo-2, Adipogen) for 1 hour followed by incubation with secondary antibody TexasRed anti-mouse IgG (TI-2000, Vector Laboratories) and Hoechst (Thermo Fisher Scientific) for 30 minutes. Cells were imaged using Nikon MR confocal microscope. […]
Primary bone marrow derived macrophages (BMDMs) were treated with CNF1 for 6 hours to trigger Caspase-1 activation. […] Cells with dots of FAM-FLICA staining were determined as positive (data not shown). […] To this aim, BMDMs were transfected with a siRNA library targeting mouse NLRs and Caspase-1 activation was monitored as previously described. […]

[3] = test system: E. coli expressing CNF1; assay: Mouse model of bacteremia with E. coli expressing CNF1; format: in vivo; conditions: BALB/c mice, 48 h after infection
Description: Data are expressed as the geometric mean±95 CI *p<0.05.
Mice were injected intravenously with 10^7 CFUs of E. coli as previously described^8. For the determination of bacteremia, blood was collected from the tail vein at the indicated times post-infection, serially diluted in sterile PBS and plated on LB plates containing streptomycin (200 μg/ml) and the plates were incubated for 16 h at 37° C. Injection quality was controlled by plating blood samples obtained from the mice at 5 min after injection. NLRP3 knock-out mice were kindly provided by V. Petrilli and have been previously described^21. Female NLRP3 KO and female congenic WT C57BL/6J littermate mice were injected intravenously with 10^7 CFUs of E. coli and the determination of bacteremia was monitored as previously described^8.
Mice were infected with the same strain and concentration of CNF1 expressing E. coli and the bacteremia was measured on each infected mouse at 0 h, 4 h, 24 h and 48 h.

[4] = test system: IL-1β maturation; assay: IL-1β maturation by immunoblot in BMDMs treated with LPS and CNF1; format: cell-based, mouse; conditions: 5 μM IPA-3 or 1 μM FRAX597 45 min before CNF1 500 ng/mL and LPS 100 ng/mL 8 h (FIG. 2c)
Description: (a-b) BMDMs isolated from BALB/c mice were transfected for 72 h with siRNA targeting either NLRP3, Nek7, Pak1, Pak2 as indicated and non-targeting siRNA were used as control. […] (c) Supernatants and cell lysates were analyzed by immunoblot. […] Active Caspase 1 was stained with FAM-FLICA, analyzed by microscopy and FAM-FLICA positive cells were counted. (n=1000 per conditions). p-value ****<0.0001, compared to the CNF1-treated BMDMs (e) HEK293T cells were transfected with plasmids encoding NLRP3 inflammasome component (myc-NLRP3, ASC-GFP, mCaspase-1) together with Flag-Rac2Q61E (Q61E), myc-Pak1 wild type (WT) or myc-Pak1T423E (T423E) and caspase-1 cleavage was analyzed by immunoblot.
HEK 293T cells were obtained from ATCC (CRL-3216) and maintained according to ATCC instructions. Bone-marrow derived macrophages (BMDMs) were extracted from femurs of 6-10 weeks-old BALB/c, C57BL/6J or C57BL/6J KO mice as indicated in the figure legends and were cultured in RPMI GlutaMax medium (Life Technologies) supplemented with 100 ng/mL M-CSF (Premium grade, Miltenyi Biotec), 10% heat-inactivated FBS (Biowest) and 50 μg/mL gentamycin (Life Technologies) at 37° C. in an atmosphere containing 5% CO2. The cells were seeded at a concentration of 10^6 cells per well in a 6-well plate. After 6 days of differentiation, BMDMs were used for experiments. […]

Row | SMILES | Total PASI score (cumulative score of scaling and erythema) [1] | Erythema score (PASI) [1] | Scaling score (PASI) [1] | Block of CNF1-triggered Caspase-1 activity/activation measured using FAM-FLICA [2] | Block of IL-1β maturation in macrophages treated with LPS and CNF1 [4] | further results
1 | CC(C)Cn1cnc2c(N)nc3ccccc3c21 [imiquimod] | 6.5 | 3 | 3.5 | – | – | –
2 | CC(C)(O)c1coc(S(=O)(=O)NC(=O)Nc2c3c(cc4c2CCC4)CCC3)c1 [MCC950] | – | – | – | sufficient to block | – | Animals found positive for bacteria ([3]; MCC950 50 mg/kg IP once a day, control group 0): 56%; Bacterial load compared to control group ([3]; MCC950 50 mg/kg IP): statistically significant higher
3 | CCn1c(=O)c(-c2ccc(-c3cncs3)cc2Cl)cc2cnc(Nc3ccc(N4CCN(C)CC4)cc3)nc21 [FRAX597] | – | – | – | sufficient to block | sufficient to block | –
4 | Oc1ccc2ccccc2c1SSc1c(O)ccc2ccccc12 [IPA-3] | – | – | – | sufficient to block | sufficient to block | –
5 | CCS(=O)(=O)c1cc(Nc2ncc(F)c(N(C)c3cc(CO)c(C)cc3C)n2)ccc1N1C[C@@H]2C[C@H]1CN2C [AZ13711265] | 3.1 | 1.4 | 1.7 | – | – | –
6 | CO[C@@H]1C[C@@H](C[C@H]2CC[C@H](C)[C@H]([C@@H](C)C(=O)O)O2)O[C@]2(O[C@](C)([C@H]3CC[C@@](C)([C@@H]4O[C@@H]([C@H]5O[C@@](O)(CO)[C@H](C)C[C@@H]5C)C[C@@H]4C)O3)C[C@H]2C)[C@@H]1C [Nigericin] | – | – | – | – | – | FAM-FLICA positive cells (mean) ([2]; WT BMDMs (FIG. 1b), control condition 2.5%): 15.4%
